Reference: US7951772B2, “Tumor-activated prodrug compounds and treatment” (La Region Wallonne, priority 1994, dated 2011)
Values after ≈ are worked out from the molar mass of the structure shown. Values joined by “and” are separate entries in the source; they are usually repeats but may differ in a detail not shown here. Identical values can stand only once. Like-named read-outs stand apart in the source and are kept apart here. Each block holds one molecule with its values, some of them ahead of it. Square brackets hold non-standard residues; d marks the D form. Peptide text beside a SMILES is read from it. * marks the point of attachment. X1 = COc1cccc2c1C(=O)c1c(O)c3c(c(O)c1C2=O)CC(O)(C(=O)CO)CC3OC1CC(N*)C(O)C(C)O1; pGlu = O=C1CC[CH](C(=O)O)N1

Columns and labels:
[1] = tested on: conditioned medium from MCF7/6 mammary carcinoma cells
[2] = tested on: female NMRI mice; assay: In vivo acute toxicity, intraperitoneal route, 5 consecutive days; set-up: species or system mouse; settings: i.p. on 5 consecutive days
Procedure: (§1) In the in vivo study of the acute toxicity of a medicinal product, determination of the median lethal dose (lethal dose for 50% of the animals or LD50) occupies an important place. […] The LD50 is a simple test in which increasing amounts of the test product are administered intravenously (i.v.) in a single injection and intraperitoneally (i.p.) in 5 injections, one injection daily for 5 consecutive days. The mortality of the animals is monitored as a function of time. At the end of the observation period, usually 30 days, the value of the LD50 is obtained by linear regression of the percentage mortality (on a probit scale) as a function of the logarithm of the dose administered (O. K. Chan and A. W. Hayes, Principles and methods for acute toxicity and eye irritancy, in Principles and methods of toxicology, Second edition. Ed. by A. W. Hayes, Raven Press, New York, USA (1989), pp. 169-220; D. Deprez-De Campeneere and A. Trouet. DNA-Anthracycline Complexes. I. Toxicity in mice and chemotherapeutic activity against L1210 Leukaemia off Daunorubicin-DNA and Adriamycin-DNA, Eur. J. Cancer, 16 (1980), pp. 981-986; H. E. Skipper, L. H. Schmidt, A. Goldin and J. M. Venditti. A manual on quantitative drug evaluation in experimental tumor systems, Cancer Chemother. Rep. 17 (1.962), pp. 1-178).
(§2) The acute toxicity of these two drugs was studied via the i.v. and i.p. routes on a single strain of mouse. Female NMRI mice (nonconsanguineous SPF-Han, approximately 5 weeks old and of mean weight 14.6 grams, supplied by IFFA-CREDO Belgium) remained in quarantine for one week.
(§3) Injections were performed systematically in the morning (single injection into the caudal vein for the i.v. route and injections on 5 consecutive days into the peritoneum for the i.p. route), using 1.0 ml syringes and sterile 30 G (i.v.) and 27 G (i.p) needles. All handling of animals was performed with gloves, and maintenance of the animals was performed systematically every week.
(§4) DNR was injected i.v. at doses of 10, 15, 20, 25, 30 and 35 mg/kg and i.p. at doses of 2.0; 2.5; 3.0 and 3.5 mg/kg.
(§5) The concentrations of the solutions were verified by spectrophotometry.
(§6) From the day of injection (DO) onwards, the mice were monitored clinically, with a daily record of dead mice. The weight of the mice was measured almost every day. The observation period was extended beyond one month so that the signs of late toxicity could be spotted more readily. At the end of the study, the surviving mice were sacrificed, according to the standards pertaining to animal experiments (D. B. McGregor. Ethics in experiments on animals, in Experiments in toxicology, First edition. Ed. by D. Anderson and D. M. Conning. The Royal Society of Chemistry and The Universities Press. Belfast, Ireland (1988), pp. 512-522).

[3] = tested on: female NMRI mice; assay: In vivo acute toxicity, intravenous route; set-up: species or system mouse
Procedure: as §1, §2, §3, §4, §5, §6

[4] = tested on: MCF7/6 human mammary carcinoma cells; assay: Accumulation in MCF7/6 tumor cells (HPLC of cell extracts)
Procedure: After various times, the accumulation of the prodrugs and of their fluorescent metabolites were determined by HPLC after extraction of the products at basic pH according to a method developed in the laboratory. Accumulations, expressed in μg/mg of cellular proteins, were compared with those of DNR and of DOX as well as with those of L-Leu-DNR and L-Leu-DOX. The metabolites were identified by determining the retention times of reference products synthesized in the laboratory.
(§7) After various times, the accumulation of the prodrugs and of their fluorescent metabolites was determined by HPLC after extraction of the products at basic pH according to a method developed in the laboratory. Accumulations, expressed in μg/mg of cellular proteins, were compared with those of DOX and of L-Leu-DOX. The metabolites were identified by determining the retention times of reference products synthesized in the laboratory.

[5] = tested on: MRC5 fibroblast cells; assay: Accumulation in MRC5 normal fibroblast cells (HPLC of cell extracts); settings: for Accumulation after 6 h, DOX / Accumulation after 6 h, Leu-DOX: 10 μg eq. DOX/ml
Procedure: At various times, the accumulation of the prodrugs and of their fluorescent metabolites was determined by HPLC after extraction of the products at basic pH according to a method developed in the laboratory. Accumulations, expressed in μg/mg of cellular proteins, were compared with those of DNR and of L-Leu-DNR. The metabolites were identified by determining the retention times of reference products synthesized in the laboratory.
as §7

[6] = tested on: MRC5 fibroblast cells; assay: Cytotoxicity with respect to MRC5 normal cells (72 h, Bradford protein); settings: for IC50: Homo sapiens
[7] = tested on: MCF7/6 human mammary carcinoma cells; assay: Cytotoxicity with respect to MCF7/6 tumor cells (72 h, Bradford protein); settings: for IC50: Homo sapiens
[8] = tested on: conditioned medium from MCF7/6 mammary carcinoma cells; assay: Degradation in conditioned medium from MCF7/6 mammary carcinoma cells (HPLC); settings: β-Ala-Leu-Ala-Leu-DOX incubated at 37 C in MCF7/6 conditioned medium concentrated 20 times, share of each species

Molecule: COc1cccc2c1C(=O)c1c(O)c3c(c(O)c1C2=O)CC(O)(C(C)=O)CC3OC1CC(NC(=O)C(CC(C)C)NC(=O)C(C)NC(=O)C(CC(C)C)NC(=O)C(C)NC(=O)C(N)CC(C)C)C(O)C(C)O1 [D-Leu-L-Ala-L-Leu-L-Ala-L-Leu-DNR]
Hydrolysis, MCF-7/6 Conditioned Medium [1]: +

Molecule: COc1cccc2c1C(=O)c1c(O)c3c(c(O)c1C2=O)C[C@@](O)(C(C)=O)C[C@@H]3O[C@H]1C[C@H](N)[C@H](O)[C@H](C)O1 [DNR, daunorubicin]
day on which no mouse is surviving ([2]; 2.0 mg/kg): 29 days
mice dead out of 7 at first mortality ([2]; 2.0 mg/kg, day 11): 1
mice surviving on day 43 ([2]; 2.5 mg/kg): one
mice dead out of 7 at first mortality ([2]; 2.5 mg/kg, day 11): 2
day on which no mouse is surviving ([2]; 3.0 mg/kg): 19 days
mice dead out of 7 at first mortality ([2]; 3.0 mg/kg, day 9): 2
day on which no mouse is surviving ([2]; 3.5 mg/kg): 12 days
mice dead out of 7 at first mortality ([2]; 3.5 mg/kg, day 7): 1
mortality from day ([2]; dose of 2.0 mg/kg): 11 days
mortality from day ([2]; dose of 2.5 mg/kg): 11 days
mortality from day ([2]; dose of 3.0 mg/kg): 9 days
mortality from day ([2]; dose of 3.5 mg/kg): 7 days
weight loss, % of the initial weight ([2]; irrespective of the dose (2.0-3.5 mg/kg)): 30%
mice dying ([3]; single i.v., 25 mg/kg, groups of 7, days 12 to 42): 6
mortality begins on day ([3]; single i.v., 30 mg/kg): 7 days
mice dead out of 7 at first mortality ([3]; single i.v., 30 mg/kg, day 7): 1
mortality begins on day ([3]; single i.v., 35 mg/kg): 6 days
mice dead out of 7 at first mortality ([3]; single i.v., 35 mg/kg, day 6): 2
mortality ([3]; single i.v., 10, 15 and 20 mg/kg): no mortality
day of maximal mean weight loss ([3]; single i.v., 10-35 mg/kg): 7 days
weight recovery of surviving mice ([3]; single i.v., 30 and 35 mg/kg, 30 days after injection): do not recover their initial weight
maximum accumulation ([4]; MCF7/6 cells, 10 μg/ml, after 6 hours of incubation): ~15 μg/mg of cellular proteins
Intracellular concentration, Starting material ([4]; MCF7/6 cells, 6 hours of incubation, 10 μg eq. DNR/ml): 14.9 μg/mg cellular proteins
ratio of the intracellular DNR levels (MCF7/6 to MRC5) ([4]; cells incubated in the presence of the compound): 0.19
accumulation plateau ([5]; MRC5 cells, 10 μg/ml, after 6 hours): ~76 μg/mg of cellular proteins
Intracellular concentration, Starting material ([5]; MRC5 cells, 6 hours of incubation, 10 μg eq. DNR/ml): 77.4 μg/mg cellular proteins
IC50 ([6]; MRC5): 0.01 ± 0.006 µg/mL (≈ 0.019 µM)
IC50 ([7]; MCF7/6): 0.09 ± 0.004 µg/mL (≈ 0.171 µM)

Molecule: COc1cccc2c1C(=O)c1c(O)c3c(c(O)c1C2=O)C[C@@](O)(C(=O)CO)C[C@@H]3O[C@H]1C[C@H](N)[C@H](O)[C@H](C)O1 [DOX, doxorubicin]
Accumulation after 6 h, DOX ([4]; MCF7/6 cells, 10 μg eq. DOX/ml): 6.9 μg/mg cellular prot. and 6.90 μg/mg cellular prot.
Accumulation after 6 h, DOX ([5]; MRC5 cells): 11.20 μg/mg cellular prot.
intracellular levels of the active therapeutic agent in normal cells compared with tumor cells ([5]; MRC5 versus MCF7/6, 6 h incubation): twice as high
IC50 ([6]; MRC5, 72 h, read-out: IC50 (72 h)): 0.018 µg/mL (≈ 0.0331 µM)
IC50 ([7]; MCF7/6, 72 h, read-out: IC50 (72 h)): 0.0025 µg/mL (≈ 0.0046 µM)

Molecule: COc1cccc2c1C(=O)c1c(O)c3c(c(O)c1C2=O)CC(O)(C(C)=O)CC3OC1CC(NC(=O)C(CC(C)C)NC(=O)CNC(=O)C(CC(C)C)NC(=O)CN)C(O)C(C)O1 [Gly-L-Leu-Gly-L-Leu-DNR]
Hydrolysis, MCF-7/6 Conditioned Medium [1]: +

Molecule: COc1cccc2c1C(=O)c1c(O)c3c(c(O)c1C2=O)CC(O)(C(=O)CO)CC3OC1CC(NC(=O)C(CC(C)C)NC(=O)C(C)N)C(O)C(C)O1 [L-Ala-L-Leu-DOX]
Starting material or Metabolite, After 2 hours [8]: <1%
Starting material or Metabolite, Time 0 [8]: 0%

Further lines, with some results ahead:

Hydrolysis, MCF-7/6 Conditioned Medium [1]: +
Molecule: COc1cccc2c1C(=O)c1c(O)c3c(c(O)c1C2=O)CC(O)(C(C)=O)CC3OC1CC(NC(=O)C(CC(C)C)NC(=O)C(C)NC(=O)C(CC(C)C)NC(=O)C(C)N)C(O)C(C)O1 [L-Ala-L-Leu-L-Ala-L-Leu-DNR]

Accumulation after 6 h, DOX ([4]; MCF7/6 cells, 10 μg eq. DOX/ml): 0.25 μg/mg cellular prot.
Accumulation after 6 h, Leu-DOX ([4]; MCF7/6 cells, 10 μg eq. DOX/ml): 1.10 μg/mg cellular prot.
accumulation, times less than DOX ([4]; MCF7/6 cells, after 6 hours): 6 times
Accumulation after 6 h, DOX ([5]; MRC5 cells): 0.3 μg/mg cellular prot.
Accumulation after 6 h, Leu-DOX ([5]; MRC5 cells): 1.4 μg/mg cellular prot.
Accumulation after 6 h, DOX ([5]; MRC5 cells, listed as Leu-DOX): 0.30 μg/mg cellular prot.
Accumulation after 6 h, Leu-DOX ([5]; MRC5 cells, listed as Leu-DOX): 1.40 μg/mg cellular prot.
Starting material or Metabolite, After 2 hours [8]: 68%
Starting material or Metabolite, Time 0 [8]: 0%
Molecule: COc1cccc2c1C(=O)c1c(O)c3c(c(O)c1C2=O)C[C@@](O)(C(=O)CO)C[C@@H]3O[C@H]1C[C@H](NC(=O)[C@@H](N)CC(C)C)[C@H](O)[C@H](C)O1 [L-Leu-DOX, N-L-leucyldoxorubicin]
IC50 (72 h) ([6]; MRC5 cells): 0.30 µg/mL (≈ 0.457 µM)
times less cytotoxic than DOX ([6]; MRC5 cells, 72 hours): 17 times
IC50 (72 h) ([7]; MCF7/6 cells): 0.020 µg/mL (≈ 0.0305 µM)
times less cytotoxic than DOX ([7]; MCF7/6 cells, 72 hours): 8 times

Starting material or Metabolite, After 2 hours [8]: <1%
Starting material or Metabolite, Time 0 [8]: 0%
Molecule: COc1cccc2c1C(=O)c1c(O)c3c(c(O)c1C2=O)C[C@@](O)(C(=O)CO)C[C@@H]3O[C@H]1C[C@H](NC(=O)[C@H](CC(C)C)NC(=O)[C@H](C)NC(=O)[C@@H](N)CC(C)C)[C@H](O)[C@H](C)O1 [L-Leu-L-Ala-L-Leu-DOX]

Hydrolysis, MCF-7/6 Conditioned Medium [1]: −
Molecule: COc1cccc2c1C(=O)c1c(O)c3c(c(O)c1C2=O)CC(O)(C(C)=O)CC3OC1CC(NC(=O)C(CC(C)C)NC(=O)C(C)NC(=O)C(CC(C)C)NC(=O)C(C)NC(=O)CCC(=O)O)C(O)C(C)O1 [Succ-L-Ala-L-Leu-L-Ala-L-Leu-DNR]

Hydrolysis, MCF-7/6 Conditioned Medium [1]: −
Molecule: COc1cccc2c1C(=O)c1c(O)c3c(c(O)c1C2=O)CC(O)(C(=O)CO)CC3OC1CC(NC(=O)C(CC(C)C)NC(=O)C(C)NC(=O)C(CC(C)C)NC(=O)C(C)NC(=O)C2CCC(=O)N2)C(O)C(C)O1 [pGlu-L-Ala-L-Leu-L-Ala-L-Leu-DOX] ([pGlu]ALAL-X1; configuration not given here)

Hydrolysis, MCF-7/6 Conditioned Medium [1]: +
Molecule: β-Ala-L-Leu-L-Ala-L-Leu-COU
